Measured values as given in paper PMC8305076, “Comprehensive Evaluation of Biological Effects of Pentathiepins on Various Human Cancer Cell Lines and Insights into Their Mode of Action” (International Journal of Molecular Sciences, 2021).
Where two headings read alike, the source gives them in different places.

Key:
Type in all cases: cell-based
[1] = test system: Kyse-70; test: crystal violet proliferation assay; details: Homo sapiens, 96 h, normoxia, read-out: GI50 CV mean
Procedure: (§1) Distinct MTT cell viability and crystal violet cell proliferation assays were performed to assess the cytotoxicity of the compounds 1–6 on 14 human cancer cell lines. In the viability assay, cells with intact mitochondria and thus active dehydrogenases are competent to convert MTT to the corresponding insoluble formazan. The formazan can be photometrically detected after solubilization and allows for indirect conclusions about the viability of the cells as an IC50 value. In the crystal violet assay, cells are stained by the binding of the dye to the chromatin, thus allowing for a quantification of biomass that remains adherent after a treatment in comparison with a control after a specific time. Potency is defined as the growth inhibitory concentration 50% (GI50).
(§2) The antiproliferative effect of the pentathiepins on human cancer cell lines was analyzed by crystal violet assay based on the protocol of a previous publication. […] After dissolving in ethanol, the optical density was measured. Here, 1000 cells (250 for LCLC-103H) in 0.1 mL of medium were seeded per well of a 96 well plate and incubated at standard conditions for 24 h prior to treatment to allow for adhesion of the cells. A serial dilution of the test compounds was prepared in medium, covering final concentrations from 10.0 to 0.04 µM and 0.1 mL of the working solution added to each well in triplicate. Additionally, samples for each cell line were seeded and directly fixed after 24 h to measure the cell density at the beginning of treatment (t0). Fixation was performed by replacing medium with 0.1 mL of a solution containing 1% glutaraldehyde in Dulbecco’s buffer (0.2 g/L KCl, 0.1 g/L MgSO4·7 H2O, 1.55 g/L Na2HPO4·7 H2O, 0.2 g/L KH2HPO4, and 8 g/L NaCl in water) for 20 min. Plates were stored in 0.1 mL of Dulbecco’s buffer until further processing. After 96 h of treatment, the same fixation process was applied to the plates containing cells and test compounds. To stain the cells, 0.1 mL of an aqueous solution of crystal violet (0.02%) was added per well for 20 min, then discarded and the plates afterwards rinsed in clear water for 30 min. The dye was extracted in 50 µL of ethanol per well during 2 h of shaking. The plates were read at λ = 570 nm using a SpectraMax 384plus (Molecular Devices, Sunnyvale, CA, USA), and the proliferation of the treatment conditions was calculated in relation to a solvent control sample after subtracting the background value of the T0-plates. The GI50 (half-maximal growth inhibitory concentration) was calculated via nonlinear regression followed by interpolation of the dose–response graphs in Prism 7 (GraphPad, San Diego, CA, USA).

[2] = test system: HAP-1; test: crystal violet proliferation assay; details: Homo sapiens, HAP1, 96 h, normoxia, read-out: GI50 CV mean
Procedure: as §1, §2

[3] = test system: HAP-1.KO.GPx1; test: crystal violet proliferation assay; details: Homo sapiens, 96 h, normoxia, read-out: GI50 CV mean
Procedure: as §1, §2

[4] = test system: RT-4; test: crystal violet proliferation assay; details: Homo sapiens, 96 h, normoxia, read-out: GI50 CV mean
Procedure: as §1, §2

[5] = test system: LCLC-103H; test: crystal violet proliferation assay; details: Homo sapiens, 96 h, normoxia, read-out: GI50 CV mean
Procedure: as §1, §2

[6] = test system: A2780cis; test: crystal violet proliferation assay; details: Homo sapiens, 96 h, normoxia, read-out: GI50 CV mean
Procedure: as §1, §2

[7] = test system: Siso; test: crystal violet proliferation assay; details: Homo sapiens, 96 h, normoxia, read-out: GI50 CV mean
Procedure: as §1, §2

[8] = test system: RT-112; test: crystal violet proliferation assay; details: Homo sapiens, 96 h, normoxia, read-out: GI50 CV mean
Procedure: as §1, §2

[9] = test system: A2780; test: crystal violet proliferation assay; details: Homo sapiens, 96 h, normoxia, read-out: GI50 CV mean
Procedure: as §1, §2

[10] = test system: DanG; test: crystal violet proliferation assay; details: Homo sapiens, 96 h, normoxia, read-out: GI50 CV mean
Procedure: as §1, §2

[11] = test system: YAPC; test: crystal violet proliferation assay; details: Homo sapiens, 96 h, normoxia, read-out: GI50 CV mean
Procedure: as §1, §2

[12] = test system: PATU-8902; test: crystal violet proliferation assay; details: Homo sapiens, 96 h, normoxia, read-out: GI50 CV mean
Procedure: as §1, §2

[13] = test system: A-427; test: crystal violet proliferation assay; details: Homo sapiens, 96 h, normoxia, read-out: GI50 CV mean
Procedure: as §1, §2

[14] = test system: Kyse-70; test: MTT cell viability assay; details: Homo sapiens, 48 h
Procedure: as §1
(§3) In addition to performing the cell viability assay under normoxia (19% atmospheric oxygen), incubations were also conducted under hypoxic conditions, i.e., atmospheric oxygen levels of 1% during the treatment for 48 h. Hypoxia is a favorable condition of the tumor microenvironment that is connected with poor outcome. Therefore, the low oxygen condition mimics better the tumor environment. The biological effect of the pentathiepins under this condition provides insight into their dependency for oxygen, which has been postulated a key component in the proposed mechanism of action (Figure 3). Consistent with the proposed mechanism of action for five of the compounds, potency decreased under hypoxic conditions; in fact for 6, the half-maximal inhibitory concentration exceeded the highest tested concentration of 10 µM in four cell lines (Figure 6, Table S3). […] In contrast to the other compounds, in some cell lines, the cytotoxic effects of 1 were more pronounced under oxygen-reduced incubation conditions (Figure 6), indicating a tangential role of oxygen availability for this pentathiepin. Especially for the breast cancer cell line MCF-7, the cytotoxicity increased substantially, indicated by a decrease of the IC50 from >10.0 µM to about 1.0 µM.
(§4) The effect of the pentathiepins on the viability of the cell lines was assessed via an MTT assay, performed as previously described. Healthy and viable cells convert the yellow soluble 3-(4,5-dimethylthiazol-2-yl)-2,5-diphenyltetrazolium bromide to the insoluble purple corresponding formazan, which can be spectrophotometrically measured. For this assay, 5000 cells (1 250 for LCLC-103H) in 0.1 mL of medium were seeded per well of a 96-well plate and incubated at standard conditions for 24 h prior to treatment. A serial dilution of the test compounds was prepared in medium, covering final concentrations from 10.0 to 0.04 µM, and 0.1 mL of the working solution was added to each well in triplicate. After 48 h, 20 µL of a 2.5 mg/mL MTT in PBS solution was pipetted into each well and further incubated for 4 h at standard conditions. Thereafter, medium was replaced with 50 µL DMSO, and the plates were put on a shaker for 5 min and subsequently read at λ = 570 nm, with a SpectraMax 384plus (Molecular Devices, Sunnyvale, CA, USA). The cell viabilities of the treatment conditions were calculated in relation to a solvent control sample. The absolute IC50 was calculated via nonlinear regression followed by interpolation of the dose–response graphs in Prism 7 (GraphPad, San Diego, CA, USA). The IC90 was derived from the IC50 by using the slope factor of the dose–response graph with the tool QuickCalcs from GraphPad (GraphPad Software, San Diego, CA, USA).

[15] = test system: DanG; test: MTT cell viability assay; details: Homo sapiens; for IC50: 48 h; for IC90: calculated via GraphPad QuickCalcs from MTT IC50 and slope factor
Procedure: as §1, §3, §4

[16] = test system: YAPC; test: MTT cell viability assay; details: Homo sapiens; for IC50: 48 h; for IC90: calculated via GraphPad QuickCalcs from MTT IC50 and slope factor
Procedure: as §1, §3, §4

[17] = test system: A-427; test: MTT cell viability assay; details: Homo sapiens, 48 h
Procedure: as §1, §3, §4

[18] = hypoxic (1% O2), read-out: IC50 MTT-H mean
[19] = normoxic (19% O2), read-out: IC50 MTT-N mean

Row | SMILES | GI50 [1] | GI50 [2] | GI50 [3] | GI50 [4] | GI50 [5] | GI50 [6] | GI50 [7] | GI50 [8] | GI50 [9] | GI50 [10] | GI50 [11] | GI50 [12] | GI50 [13] | IC50 [14, 18] | IC50 [14, 19] | IC50 [15, 18] | IC50 [15, 19] | IC90 [15] | IC50 [16, 18] | IC50 [16, 19] | further results
1 | CCOc1c2c(c3ccc(C(=O)N(CC)CC)cn13)SSSSS2 [Compound 4, 6-Ethoxy-N,N’-diethyl-[1,2,3,4,5]pentathiepino[6,7-a]indolizine-9-carboxamide] | 284 nM | 84 nM | 116 nM | 445 nM | 306 nM | 173 nM | 381 nM | 469 nM | 106 nM | 459 nM | 608 nM | 471 nM | 310 nM | 3600 nM | 976 nM | 4460 nM | 1650 nM | 2710 nM | 2210 nM | 1150 nM | IC90 [16]: 3700 nM; IC50 [17, 18]: 1190 nM; IC50 [17, 19]: 1090 nM
2 | CCOc1c2c(c3cnc4[nH]c(-c5ccc(OC)cc5)cc4n13)SSSSS2 [Compound 1, 11-Ethoxy-2-(4-methoxyphenyl)-3H-[1,2,3,4,5]pentathiepino[6′,7′:3,4]pyrrolo[1,2-a]pyrrolo[2,3-e]pyrazine] | 264 nM | 339 nM | 313 nM | 373 nM | 441 nM | 228 nM | 256 nM | 465 nM | 236 nM | 340 nM | 405 nM | 480 nM | 306 nM | 532 nM | 477 nM | 478 nM | 1110 nM | 1710 nM | 360 nM | 780 nM | IC90 [16]: 2470 nM; IC50 [17, 18]: 285 nM; IC50 [17, 19]: 349 nM
3 | CCOc1c2c(c3ccc(C(=O)N4CCCCC4)cn13)SSSSS2 [Compound 2, (6-Ethoxy-[1,2,3,4,5]pentathiepino[6,7-a]indolizin-9-yl)(piperidinyl)methanone] | 409 nM | 161 nM | 173 nM | 1520 nM | 552 nM | 234 nM | 423 nM | 559 nM | 164 nM | 644 nM | 628 nM | 659 nM | 401 nM | 2100 nM | 1580 nM | 4350 nM | 1990 nM | 3060 nM | 2230 nM | 1550 nM | IC90 [16]: 4260 nM; IC50 [17, 18]: 1080 nM; IC50 [17, 19]: 1460 nM
4 | CCOc1c2c(c3ccc(C(=O)N4CCOCC4)cn13)SSSSS2 [Compound 3, (6-Ethoxy-[1,2,3,4,5]pentathiepino[6,7-a]indolizin-9-yl)(morpholino)methanone] | 142 nM | 64 nM | 68 nM | 193 nM | 128 nM | 88 nM | 166 nM | 246 nM | 55 nM | 382 nM | 350 nM | 257 nM | 142 nM | 2290 nM | 824 nM | 2660 nM | 1450 nM | 2540 nM | 2370 nM | 1220 nM | IC90 [16]: 2240 nM; IC50 [17, 18]: 959 nM; IC50 [17, 19]: 785 nM
5 | CCOc1c2c(c3ccc(C(=O)N4CCN(C(=O)c5ccc(F)cc5)CC4)cn13)SSSSS2 [Compound 5, (6-Ethoxy-[1,2,3,4,5]pentathiepino[6,7-a]indolizin-9-yl)(4-(4-fluorobenzoyl)piperazinyl)methanone] | 181 nM | 120 nM | 144 nM | 358 nM | 232 nM | 142 nM | 369 nM | 384 nM | 92 nM | 398 nM | 411 nM | 340 nM | 320 nM | 1520 nM | 826 nM | 1620 nM | 1180 nM | 2050 nM | 1520 nM | 1360 nM | IC90 [16]: 2200 nM; IC50 [17, 18]: 834 nM; IC50 [17, 19]: 906 nM
6 | CCOc1c2c(c3ccc(C(=O)N4CCN(S(=O)(=O)c5ccc(C)cc5)CC4)cn13)SSSSS2 [Compound 6, (6-Ethoxy-[1,2,3,4,5]pentathiepino[6,7-a]indolizin-9-yl)(4-tosylpiperazinyl)methanone] | 481 nM | 507 nM | 524 nM | 835 nM | 646 nM | 512 nM | 597 nM | 1100 nM | 538 nM | 711 nM | 1170 nM | 952 nM | 352 nM | > 10000 nM | 1950 nM | > 10000 nM | 2180 nM | 4940 nM | 3720 nM | 5170 nM | IC90 [16]: 17900 nM; IC50 [17, 18]: 1390 nM; IC50 [17, 19]: 1790 nM
